# Data from ChEMBL document CHEMBL1129710, “Glycomimetic selectin inhibitors: (-D-mannopyranosyloxy)methylbiphenyls” (Bioorg Med Chem Lett, 1996).
# Calls of active or inactive are those of the source. The rule behind the calls is not given here.
# How the values were obtained:
# HL-60 [1] = assay: Compound was tested for its ability to inhibit sialyl Lewis X (sLex, IC50 = 2 mM) dependent binding of HL-60 cells to P-selectin fusion protein; assay type: functional
# HL-60 [2] = assay: Compound was tested for its ability to inhibit sialyl Lewis X (sLex, IC50 = 2 mM) dependent binding of HL-60 cells to P-selectin fusion protein; Not assayed; assay type: functional, cell-based
# HL-60 [3] = assay: Compound was tested for its ability to inhibit sialyl Lewis X dependent binding of HL-60 cells to P-selectin fusion protein; assay type: functional, cell-based; conditions: Homo sapiens
# E-selectin = target: T1, E-selectin (Mus musculus, UniProt Q00690); assay: Compound was tested for its ability to inhibit sialyl Lewis X dependent binding of HL-60 cells to Selectin E fusion protein
# T1 sequence (Q00690 whole entry): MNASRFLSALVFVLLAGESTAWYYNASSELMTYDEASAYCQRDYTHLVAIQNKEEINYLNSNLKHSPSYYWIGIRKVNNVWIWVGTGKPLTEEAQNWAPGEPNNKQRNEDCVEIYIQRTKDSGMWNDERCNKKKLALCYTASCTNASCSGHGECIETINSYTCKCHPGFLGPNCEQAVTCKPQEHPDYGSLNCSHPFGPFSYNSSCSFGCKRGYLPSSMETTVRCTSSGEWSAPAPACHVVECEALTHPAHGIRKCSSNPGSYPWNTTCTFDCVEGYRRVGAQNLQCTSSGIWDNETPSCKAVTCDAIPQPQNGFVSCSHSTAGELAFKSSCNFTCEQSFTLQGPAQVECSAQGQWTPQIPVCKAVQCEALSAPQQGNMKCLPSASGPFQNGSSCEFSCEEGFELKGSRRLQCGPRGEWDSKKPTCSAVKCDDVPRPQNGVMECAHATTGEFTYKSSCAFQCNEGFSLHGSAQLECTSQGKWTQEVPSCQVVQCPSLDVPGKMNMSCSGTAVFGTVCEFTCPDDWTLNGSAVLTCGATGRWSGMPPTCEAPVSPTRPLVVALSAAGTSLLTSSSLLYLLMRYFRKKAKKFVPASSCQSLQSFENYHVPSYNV
Compound,Ratio (HL-60 [1]),also measured
O=C(O)COc1ccc(-c2cccc(CO[C@H]3O[C@H](CO)[C@@H](O)[C@@H](O)[C@@H]3O)c2)cc1,1.2,
O=C(O)COc1cccc(-c2cccc(CO[C@H]3O[C@H](CO)[C@@H](O)[C@@H](O)[C@@H]3O)c2)c1,4.8,
O=C(O)Cc1ccc(-c2cccc(CO[C@H]3O[C@H](CO)[C@@H](O)[C@@H](O)[C@@H]3O)c2)cc1,>20,
O=C(O)Cc1cccc(-c2cccc(CO[C@H]3O[C@H](CO)[C@@H](O)[C@@H](O)[C@@H]3O)c2)c1,1.2,
O=C(O)CCC(=O)c1ccc(-c2cccc(CO[C@H]3O[C@H](CO)[C@@H](O)[C@@H](O)[C@@H]3O)c2)cc1,>>10,
O=C(O)Cc1cccc(-c2ccccc2CO[C@H]2O[C@H](CO)[C@@H](O)[C@@H](O)[C@@H]2O)c1,,Ratio (HL-60 [2]): inactive
CC(=O)N[C@H]1[C@H]([C@H](O)[C@H](O)CO)O[C@@](O[C@H]2[C@@H](O)[C@@H](CO)O[C@@H](O[C@@H]([C@H](O[C@@H]3O[C@@H](C)[C@@H](O)[C@@H](O)[C@@H]3O)[C@H](C=O)NC(C)=O)[C@H](O)CO)[C@@H]2O)(C(=O)O)C[C@@H]1O [SIALYL LEWIS X],,IC50 (HL-60 [3]): 2 mM; IC50 (E-selectin): 3 mM
Cc1cc(-c2cccc(CO[C@H]3O[C@H](CO)[C@@H](O)[C@@H](O)[C@@H]3O)c2)cc(C)c1OCC(=O)O,0.5,
O=C(O)Cc1cccc(-c2ccc(CO[C@H]3O[C@H](CO)[C@@H](O)[C@@H](O)[C@@H]3O)cc2)c1,>>2.3,
O=C(O)c1cccc(-c2cccc(CO[C@H]3O[C@H](CO)[C@@H](O)[C@@H](O)[C@@H]3O)c2)c1,2.5,
